Values quoted from earlier work, collected in patent publication US20050163842A1, “Rosiglitazone and metformin formulations” (priority 2003, published 2005).

How the values were obtained:
[1] = tested on: mouse models of diabetes
[2] = tested on: animal models of type 2 diabetes

## CN(CCOc1ccc(CC2SC(=O)NC2=O)cc1)c1ccccn1 (stereo not drawn) [Rosiglitazone, 5-[4-[2-(N-methyl-N-(2-pyridyl)amino)ethoxy]benzyl]thiazolidine-2,4-dione]
[1]; mouse models
  development of overt diabetes: prevent the development of overt diabetes
[1]; several mouse models of diabetes
  blood glucose levels and hyperinsulinemia: reduce blood glucose levels and hyperinsulinemia
[2]
  hypoglycemia or impaired glucose tolerance: did not induce hypoglycemia or impaired glucose tolerance
